Assay results as given in patent US11110082B2, “Tyrosine kinase inhibitors” (Rigel Pharmaceuticals, Inc., priority 2016, dated 2021).

Target: T1, MerTK (Homo sapiens, UniProt Q12866)
T1 construct: Seed HUVECs (10K cells/well) in EBM-2 complete media; host or cells: HUVEC (primary human umbilical vein endothelial cells)
T1 sequence (Q12866 21-999): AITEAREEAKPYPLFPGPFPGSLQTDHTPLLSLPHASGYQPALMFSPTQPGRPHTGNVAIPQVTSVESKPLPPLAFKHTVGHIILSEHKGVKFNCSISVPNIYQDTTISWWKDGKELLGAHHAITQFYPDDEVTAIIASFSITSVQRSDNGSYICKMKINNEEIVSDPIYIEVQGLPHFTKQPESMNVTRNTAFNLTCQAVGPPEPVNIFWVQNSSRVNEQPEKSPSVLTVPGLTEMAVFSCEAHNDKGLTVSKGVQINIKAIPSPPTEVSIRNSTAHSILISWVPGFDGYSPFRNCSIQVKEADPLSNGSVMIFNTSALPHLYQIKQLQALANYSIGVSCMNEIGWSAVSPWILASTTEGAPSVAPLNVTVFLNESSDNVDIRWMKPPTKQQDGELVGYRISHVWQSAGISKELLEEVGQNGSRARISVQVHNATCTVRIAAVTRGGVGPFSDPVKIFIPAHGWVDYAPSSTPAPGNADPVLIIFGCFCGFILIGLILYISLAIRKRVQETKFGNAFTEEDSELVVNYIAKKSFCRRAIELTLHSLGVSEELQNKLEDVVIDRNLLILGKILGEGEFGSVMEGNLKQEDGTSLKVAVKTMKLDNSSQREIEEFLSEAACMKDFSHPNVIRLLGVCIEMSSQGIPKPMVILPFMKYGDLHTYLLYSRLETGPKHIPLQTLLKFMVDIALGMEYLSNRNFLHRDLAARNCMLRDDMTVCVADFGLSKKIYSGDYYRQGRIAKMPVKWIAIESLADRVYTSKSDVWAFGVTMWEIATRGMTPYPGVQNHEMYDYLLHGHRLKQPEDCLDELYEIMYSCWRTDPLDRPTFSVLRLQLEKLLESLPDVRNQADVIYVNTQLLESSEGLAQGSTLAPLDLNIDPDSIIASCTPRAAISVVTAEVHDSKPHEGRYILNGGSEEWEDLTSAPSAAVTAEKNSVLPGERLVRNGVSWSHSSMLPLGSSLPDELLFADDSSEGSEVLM
Experiment: PAKT HTRF-HUVEC assay (pAkt Ser473 HTRF after anti-human MerTK-XL stimulation)
Format: cell-based
Conditions: HUVEC cells, 1 hour compound, stimulated with anti-human MerTK-XL 1 ug/mL for 10 minutes, read-out: inhibition of MerTK
Protocol: Example 4: PAKT HTRF-HUVEC Assay Phospho Akt (Ser473) Assay kit-10,000 tests (Cisbio US, 64[…]) HUVEC cells (Lonza, CC-2519) Anti-human MerTK antibody (Clone 125518) (R&D Systems, MAB8912) Method Seed HUVECs (10K cells/well) in EBM-2 complete media (EBM-2 basal medium plus EGM-2 BulletKit supplements) overnight at 37° C., 5% CO2 in Costar 96-well white clear-bottom plates. Remove culture media and starve cells for 3-4 hours in 50 μL/well EBM-2 basal medium. Perform serial dilution of compounds in DMSO from 2.5 mM in 4-fold dilutions, and then dilute 1:125 in EBM-2 basal media. Mix 50 μL/well 2x compounds with 50 μL/well HUVECs in duplicate in Costar 96-well white clear-bottom plates. Incubate plates for 1 hour at 37° C., 5% CO2. Cross-link anti-human MerTK antibody to Biotin-SP-conjugated anti-mouse IgG antibody (1:1) to give final concentrations of 5 ug/mL of anti-human MerTK-XL. Stimulate HUVECs with 25 μL/well 5x anti-human MerTK-XL to give final concentrations of 1 ug/mL for 10 minutes at 37° C., 5% CO2. Completely remove media and lyse HUVECs with 40 uL/WELL per well of Cisbio HTRF 1× lysis buffer. Performed pAkt(Ser473) HTRF assay in ProxiPlate-384 Plus, white 384-shallow well microplate according to the vendor protocol and read plates with a SpectralMax Paradigm plate reader. Enter the HTRF values into Athena (Rigel) for curve fitting, EC50 calculation, and database storage.

| SMILES | EC50 [nM] |
| --- | --- |
| O=c1c2cc(CN3CCOCC3)ccc2c2cnc(NCCC3CC3)nc2n1[C@H]1CC[C@H](O)CC1 [Compound 27, trans-3-((2-Cyclopropylethyl)amino)-5-(4-hydroxycyclohexyl)-8-(morpholinomethyl)pyrimido [4,5-c]isoquinolin-6(5H)-one] | 45.9 |
| CN1CCN(Cc2ccc3c(c2)c(=O)n(C2CCC(C)(O)CC2)c2nc(NCC4CC4)ncc32)CC1 (stereo not drawn) [Compound 28, trans-3-((Cyclopropylmethyl)amino)-5-(4-hydroxy-4-methylcyclohexyl)-8-((4-methylpiperazin-1-yl)methyl)pyrimido[4,5-c]isoquinolin-6(5H)-one] | 36.6 |
| CN1CCN(Cc2ccc3c(c2)c(=O)n([C@H]2CC[C@](C)(O)CC2)c2nc(NCCC4CC4)ncc32)CC1 [Compound 29, trans-3-((2-Cyclopropylethyl)amino)-5-(4-hydroxy-4-methylcyclohexyl)-8-((4-methylpiperazin-1-yl)methyl)pyrimido[4,5-c]isoquinolin-6(5H)-one] | 6.2 |
| CC(C)N1CCN(Cc2ccc3c(c2)c(=O)n([C@H]2CC[C@H](O)CC2)c2nc(NCC4CC4)ncc32)CC1 [Compound 30, trans-3-((Cyclopropylmethyl)amino)-5-(4-hydroxycyclohexyl)-8-((4-isopropylpiperazin-1-yl)methyl)pyrimido[4,5-c]isoquinolin-6(5H)-one] | 18.3 |
| CC(C)N1CCN(Cc2ccc3c(c2)c(=O)n([C@H]2CC[C@](C)(O)CC2)c2nc(NCC4CC4)ncc32)CC1 [Compound 31, trans-3-((Cyclopropylmethyl)amino)-5-(4-hydroxy-4-methylcyclohexyl)-8-((4-isopropylpiperazin-1-yl)methyl)pyrimido[4,5-c]isoquinolin-6(5H)-one] | 12.5 |
| CC(C)N1CCN(Cc2ccc3c(c2)c(=O)n(C2CCC(C)(O)CC2)c2nc(NCCC4CC4)ncc32)CC1 (stereo not drawn) [Compound 32, trans-3-((2-Cyclopropylethyl)amino)-5-(4-hydroxy-4-methylcyclohexyl)-8-((4-isopropylpiperazin-1-yl)methyl)pyrimido[4,5-c]isoquinolin-6(5H)-one] | 6.5 |
| CC(C)N1CCN(Cc2ccc3c(c2)c(=O)n([C@H]2CC[C@H](O)CC2)c2nc(NCC4CCC4)ncc32)CC1 [Compound 33, trans-3-((Cyclobutylmethyl)amino)-5-(4-hydroxycyclohexyl)-8-((4-isopropylpiperazin-1-yl)methyl)pyrimido[4,5-c]isoquinolin-6(5H)-one] | 4.6 |
| CN1CCN(Cc2ccc3c(c2)c(=O)n([C@H]2CC[C@](C)(O)CC2)c2nc(NCC4CCC4)ncc32)CC1 [Compound 34, trans-3-((Cyclobutylmethyl)amino)-5-(4-hydroxy-4-methylcyclohexyl)-8-((4-methylpiperazin-1-yl)methyl)pyrimido[4,5-c]isoquinolin-6(5H)-one] | 7.4 |
| O=c1c2cc(CN3CCN(C4COC4)CC3)ccc2c2cnc(NCC3CC3)nc2n1[C@H]1CC[C@H](O)CC1 [Compound 35, trans-3-((Cyclopropylmethyl)amino)-5-(4-hydroxycyclohexyl)-8-((4-(oxetan-3-yl)piperazin-1-yl)methyl)pyrimido[4,5-c]isoquinolin-6(5H)-one] | 46.7 |
| C[C@]1(O)CC[C@H](n2c(=O)c3cc(CN4CCN(C5COC5)CC4)ccc3c3cnc(NCC4CC4)nc32)CC1 [Compound 36, trans-3-((Cyclopropylmethyl)amino)-5-(4-hydroxy-4-methylcyclohexyl)-8-((4-(oxetan-3-yl)piperazin-1-yl)methyl)pyrimido[4,5-c]isoquinolin-6(5H)-one] | 16.8 |
| O=c1c2cc(CN3CCC(N4CCCC4)CC3)ccc2c2cnc(NCC3CC3)nc2n1[C@H]1CC[C@H](O)CC1 [Compound 37, trans-3-((Cyclopropylmethyl)amino)-5-(4-hydroxycyclohexyl)-8-((4-(pyrrolidin-1-yl)piperidin-1-yl)methyl)pyrimido[4,5-c]isoquinolin-6(5H)-one] | 53.8 |
| C[C@]1(O)CC[C@H](n2c(=O)c3cc(CN4CCC(N5CCCC5)CC4)ccc3c3cnc(NCC4CC4)nc32)CC1 [Compound 38, trans-3-((Cyclopropylmethyl)amino)-5-(4-hydroxy-4-methylcyclohexyl)-8-((4-(pyrrolidin-1-yl)piperidin-1-yl)methyl)pyrimido[4,5-c]isoquinolin-6(5H)-one] | 33.3 |
| O=c1c2cc(CN3CCn4ncnc4C3)ccc2c2cnc(NCC3CC3)nc2n1[C@H]1CC[C@H](O)CC1 [Compound 39, trans-3-((Cyclopropylmethyl)amino)-8-((5,6-dihydro-[1,2,4]triazolo[1,5-a]pyrazin-7(8H)-yl)methyl)-5-(4-hydroxycyclohexyl)pyrimido [4,5-c]isoquinolin-6(5H)-one] | 64.6 |
| O=c1c2cc(CN3CCN(CC(F)(F)F)CC3)ccc2c2cnc(NCC3CC3)nc2n1[C@H]1CC[C@H](O)CC1 [Compound 40, trans-3-((Cyclopropylmethyl)amino)-5-(4-hydroxycyclohexyl)-8-((4-(2,2,2-trifluoroethyl)piperazin-1-yl)methyl)pyrimido[4,5-c]isoquinolin-6(5H)-one] | 50.7 |
| O=c1c2cc(CN3CCN(CC(F)F)CC3)ccc2c2cnc(NCC3CC3)nc2n1[C@H]1CC[C@H](O)CC1 [Compound 43, trans-3-((Cyclopropylmethyl)amino)-8-((4-(2,2-difluoroethyl)piperazin-1-yl)methyl)-5-(4-hydroxycyclohexyl)pyrimido[4,5-c]isoquinolin-6(5H)-one] | 51.3 |
| CCCCNc1ncc2c3ccc(CN4CCNCC4)cc3c(=O)n([C@H]3CC[C@H](O)CC3)c2n1 [Compound 44, trans-3-(Butylamino)-5-(4-hydroxycyclohexyl)-8-(piperazin-1-ylmethyl)pyrimido[4,5-c]isoquinolin-6(5H)-one] | 66 |
| O=c1c2cc(CN3CCOCC3)ccc2c2cnc(NCC3CC3)nc2n1[C@H]1CC[C@H](O)CC1 [Compound 45, trans-3-((Cyclopropylmethyl)amino)-5-(4-hydroxycyclohexyl)-8-(morpholinomethyl)pyrimido [4,5-c]isoquinolin-6(5H)-one] | 149 |
| C[C@]1(O)CC[C@H](n2c(=O)c3cc(CN4CCOCC4)ccc3c3cnc(NCC4CC4)nc32)CC1 [Compound 46, trans-3-((Cyclopropylmethyl)amino)-5-(4-hydroxy-4-methylcyclohexyl)-8-(morpholinomethyl)pyrimido [4,5-c]isoquinolin-6(5H)-one] | 116 |
| O=c1c2cc(CN3CCS(=O)(=O)CC3)ccc2c2cnc(NCC3CC3)nc2n1[C@H]1CC[C@H](O)CC1 [Compound 49, trans-3-((Cyclopropylmethyl)amino)-8-((1,1-dioxidothiomorpholino)methyl)-5-(4-hydroxycyclohexyl)pyrimido [4,5-c]isoquinolin-6(5H)-one] | 221 |
| CCOC(=O)C1CCN(Cc2ccc3c(c2)c(=O)n([C@H]2CC[C@H](O)CC2)c2nc(NCC4CC4)ncc32)CC1 [Compound 50, trans-Ethyl 1-((3-((Cyclopropylmethyl)amino)-5-(4-hydroxycyclohexyl)-6-oxo-5,6-dihydropyrimido[4,5-c]isoquinolin-8-yl)methyl)piperidine-4-carboxylate] | 25.9 |
| O=c1c2cc(CN3CC[S+]([O-])CC3)ccc2c2cnc(NCC3CC3)nc2n1[C@H]1CC[C@H](O)CC1 [Compound 52, trans-3-((cyclopropylmethyl)amino)-5-(4-hydroxycyclohexyl)-8-((1-oxidothiomorpholino)methyl) pyrimido[4,5-c]isoquinolin-6(5H)-one] | 401 |
